Key:
[1] = target: T1, calpain (calpain-1) in the kit (Homo sapiens, UniProt P07384); test: Calpain Inhibitory Activity Measurement 1 (SensorLyte 520 Calpain Activity Assay Kit, 5-FAM/QXL 520 substrate); assay type: biochemical; settings: inhibitor 0.062 μM; 5-FAM/QXL 520 5.0 μM; 37° C., 25 minutes; compared with SNJ-1945
T1 construct: purchased AnaSpec, Inc. AS-72149
T1 sequence (P07384 1-714): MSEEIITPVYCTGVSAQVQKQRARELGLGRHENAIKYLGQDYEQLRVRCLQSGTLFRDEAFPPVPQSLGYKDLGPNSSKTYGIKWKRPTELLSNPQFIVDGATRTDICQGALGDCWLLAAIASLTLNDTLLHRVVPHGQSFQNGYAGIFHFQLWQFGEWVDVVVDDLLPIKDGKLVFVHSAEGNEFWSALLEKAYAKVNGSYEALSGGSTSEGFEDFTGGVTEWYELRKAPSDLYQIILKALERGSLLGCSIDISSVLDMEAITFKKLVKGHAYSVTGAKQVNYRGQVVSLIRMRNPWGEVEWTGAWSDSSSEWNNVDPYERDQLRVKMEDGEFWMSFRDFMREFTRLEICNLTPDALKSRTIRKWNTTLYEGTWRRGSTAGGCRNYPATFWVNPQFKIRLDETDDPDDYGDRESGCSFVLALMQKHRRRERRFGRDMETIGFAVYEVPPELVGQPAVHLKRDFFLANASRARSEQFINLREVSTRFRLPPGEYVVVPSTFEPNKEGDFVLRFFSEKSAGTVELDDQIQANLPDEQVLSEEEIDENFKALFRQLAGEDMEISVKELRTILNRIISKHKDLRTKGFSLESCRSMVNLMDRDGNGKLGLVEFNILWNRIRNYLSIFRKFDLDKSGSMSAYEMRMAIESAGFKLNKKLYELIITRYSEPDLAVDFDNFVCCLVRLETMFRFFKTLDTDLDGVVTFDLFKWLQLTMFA
T1 sequence (P04632 1-268 partner): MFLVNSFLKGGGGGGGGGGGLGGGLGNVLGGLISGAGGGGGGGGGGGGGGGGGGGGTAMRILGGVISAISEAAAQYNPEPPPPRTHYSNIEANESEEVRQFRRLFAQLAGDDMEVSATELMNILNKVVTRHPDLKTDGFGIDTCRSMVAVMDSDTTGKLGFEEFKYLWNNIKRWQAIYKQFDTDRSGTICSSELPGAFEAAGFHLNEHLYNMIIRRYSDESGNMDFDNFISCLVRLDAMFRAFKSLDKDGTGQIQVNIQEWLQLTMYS
Experimental: Calpain inhibitory activity was measured with SensorLyte™ 520 Calpain Activity Asay Kit (AnaSpec, Inc., AS-72149) in conformity with a method described in its assay protocol. SNJ-1945 (Medkoo Biosciences, Inc., Cat #564979), Compound 13, Compound 14, Compound 18, or Compound 19 serving as a calpain inhibitor and a calpain (calpain-1) in the kit were mixed with each other in Assay Buffer, and the mixture was incubated at 37° C. for 3 minutes. 5-FAM/QXL™ 520 serving as a calpain enzyme substrate was added to the incubated product to perform an enzyme reaction by the calpain at 37° C. for 25 minutes (the final concentration of each inhibitor was 0.062 μM, and the final concentration of 5-FAM/QXL™ 520 was 5.0 μM). In the enzyme reaction, the enzyme substrate is cleaved by the calpain to emit fluorescence. The emission fluorescence intensity of the substrate was detected with a plate reader (Infinite™ 200 PRO, TECAN) (at an excitation wavelength of 490 nm and a fluorescence wavelength of 520 nm). SNJ-1945 is a known calpain inhibitor, and has the following structure.

[2] = target: T2, calpain-1 from human erythrocytes (Homo sapiens, UniProt P07384); test: Calpain Inhibitory Activity Measurement 2 (HMRG fluorescent probe, various inhibitor concentrations, IC50); assay type: biochemical; settings: fluorescent probe 5 μM; calpain-1 6.48 μg/mL; 37° C., 30 minutes; Tris buffer pH 7.4
T2 construct: calpain-1 from human erythrocytes; purchased Merck Millipore 208713; host or cells: human erythrocytes
T2 sequence (P07384 1-714): T1 sequence (P07384 1-714)
T2 sequence (P04632 1-268 partner): T1 sequence (P04632 1-268 partner)
Experimental: Calpain-1 (calpain-1 from human erythrocytes, Cat. No. 208713, Merck Millipore) and a DMSO solution of a HMRG fluorescent probe for detecting calpain activity were added to each of 50 mM Tris buffers (pH: 7.4, 5 mM CaCl2), 2 mM DTE, 2 mM EGTA) containing various concentrations of SNJ-1945 or Compound 13 to perform fluorescence assays (the final concentration of the fluorescent probe was 5 μM, and the final concentration of calpain-1 was 6.48 μg/mL). […] The results are shown in FIG. 2 (concentrations shown in the figure each represent the final concentration of SNJ-1945 or Compound 13 in each assay). The following compound was used as the probe for detecting calpain activity.
An IC50 was determined on the basis of a graph produced with data analysis software “KaleidaGraph”. As a result, the IC50 of Compound 13 was 0.010 μM, and the IC50 of SNJ-1945 was 0.040 μM.

Compound | enzyme inhibitory activity on the calpain (fluorescence increase amount, FIG. 1) [1] | IC50 [2] [nM]
C#CCOCC(=O)N[C@@H](CC(C)C)C(=O)N[C@@H](Cc1ccccc1)C(=O)C(=O)NC1CC1 [Compound 18] | stronger than that of SNJ-1945 | 
COC(C)(C)C(=O)N[C@@H](CC(C)C)C(=O)N[C@@H](Cc1ccccc1)C(=O)C(=O)NC1CC1 [Compound 14] | stronger than that of SNJ-1945 | 

Second part, the compound after the results:

enzyme inhibitory activity on the calpain (fluorescence increase amount, FIG. 1) [1] | IC50 [2] [nM] | Compound
comparable to that of SNJ-1945 |  | COCCC(=O)N[C@@H](CC(C)C)C(=O)N[C@@H](Cc1ccccc1)C(=O)C(=O)NC1CC1 [Compound 19, reference compound]
inhibited | 40 | COCCOCCOC(=O)N[C@@H](CC(C)C)C(=O)N[C@@H](Cc1ccccc1)C(=O)C(=O)NC1CC1 [SNJ-1945, reference compound]
stronger than that of SNJ-1945 | 10 | COCC(=O)N[C@@H](CC(C)C)C(=O)N[C@@H](Cc1ccccc1)C(=O)C(=O)NC1CC1 [Compound 13]

Source: patent US20250361202A1, “CALPAIN INHIBITOR” (GORYO CHEMICAL, INC., priority 2022, published 2025)
